Results taken from patent US12692254B2, “Benzimidazole inhibitors of PAD enzymes” (BRISTOL-MYERS SQUIBB COMPANY, priority 2018, dated 2026).
pIC50: −log10 of the molar value.

molecular target: human PAD4 (hPAD4) (Homo sapiens, UniProt Q9UM07); assay: RFMS human PAD4 functional assay (rapid-fire mass spectrum); type: biochemical; details: 5 nM hPAD4 enzyme, 250 μM BAEE, 50 μM Calcium; 30 min preincubation, 90 min reaction at 37° C.
Outline: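 PAD4 (10 nM) preincubated 30 min with compound (top final 50 μM), then BAEE substrate added in pH 7.5 HEPES buffer with DTT, 50 μM calcium, TPEN; 90 min at 37° C. After TCA quench, citrulline derivatized with phenyl glyoxal (4 mM final, 30 min, 37° C) and quantified by RapidFire MS against internal standard.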

human PAD4 (hPAD4), sequence (Q9UM07 whole entry): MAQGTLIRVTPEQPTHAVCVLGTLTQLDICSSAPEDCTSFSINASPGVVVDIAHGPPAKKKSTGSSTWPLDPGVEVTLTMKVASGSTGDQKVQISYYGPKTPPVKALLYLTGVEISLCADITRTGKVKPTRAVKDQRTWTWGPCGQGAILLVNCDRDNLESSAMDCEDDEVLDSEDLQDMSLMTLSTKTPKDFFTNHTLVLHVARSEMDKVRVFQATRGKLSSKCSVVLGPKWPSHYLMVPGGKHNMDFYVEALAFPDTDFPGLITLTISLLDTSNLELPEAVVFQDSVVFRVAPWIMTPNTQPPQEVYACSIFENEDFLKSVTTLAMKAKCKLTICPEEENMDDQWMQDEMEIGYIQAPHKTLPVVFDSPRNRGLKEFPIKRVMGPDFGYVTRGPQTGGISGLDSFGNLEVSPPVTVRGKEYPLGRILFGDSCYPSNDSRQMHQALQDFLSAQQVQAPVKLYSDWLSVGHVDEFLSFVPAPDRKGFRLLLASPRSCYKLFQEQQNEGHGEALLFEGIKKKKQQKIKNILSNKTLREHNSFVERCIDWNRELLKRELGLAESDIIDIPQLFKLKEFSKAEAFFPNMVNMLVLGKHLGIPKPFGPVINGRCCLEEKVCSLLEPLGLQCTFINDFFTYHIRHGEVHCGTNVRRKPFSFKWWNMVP

Compared with `COc1cc(C(=O)N2C[C@H]3CC[C@@H]2[C@@H]3N)cc2nc(-c3cc4cc(Cl)ccc4n3C)n(CC3CN(c4cncc(C#N)c4)C3)c12` [Example 58, 5-[3-({5-[(1R,4R,7R)-7-amino-2-azabicyclo[2.2.1]heptane-2-carbonyl]-2-(5-chloro-1-methyl-1H-indol-2-yl)-7-methoxy-1H-1,3-benzodiazol-1-yl}methyl)azetidin-1-yl]pyridine-3-carbonitrile], `COc1cc(C(=O)N2C[C@H]3CC[C@@H]2[C@@H]3N)cc2nc(-c3cc4ccccc4n3C)n(CC3CN(c4ccnc(C#N)n4)C3)c12` [Example 10, 4-[3-({5-[(1R,4R,7R)-7-amino-2-azabicyclo[2.2.1]heptane-2-carbonyl]-7-methoxy-2-(1-methyl-1H-indol-2-yl)-1H-1,3-benzodiazol-1-yl}methyl)azetidin-1-yl]pyrimidine-2-carbonitrile] is 0.72 log units higher in pIC50: 6.77 for the first, 7.49 for the second. The second is the more potent here.

First: COc1cc(C(=O)N2C[C@H]3CC[C@@H]2[C@@H]3N)cc2nc(-c3cc4ccccc4n3CC3CC3)n(CC3CN(C(=O)c4cccc(F)c4)C3)c12 [Example 169, (1R,4R,7R)-2-{2-[1-(cyclopropylmethyl)-1H-indol-2-yl]-1-{[1-(3-fluorobenzoyl)azetidin-3-yl]methyl}-7-methoxy-1H-1,3-benzodiazole-5-carbonyl}-2-azabicyclo[2.2.1]heptan-7-amine]
Second: COc1cc(C(=O)N2C[C@H]3CC[C@@H]2[C@@H]3N)cc2nc(-c3cc4ccccc4n3CC3CC3)n(CC3CN(C(=O)c4cc(C#N)ccc4F)C3)c12 [Example 174, 3-[3-({5-[(1R,4R,7R)-7-amino-2-azabicyclo[2.2.1]heptane-2-carbonyl]-2-[1-(cyclopropylmethyl)-1H-indol-2-yl]-7-methoxy-1H-1,3-benzodiazol-1-yl}methyl)azetidine-1-carbonyl]-4-fluorobenzonitrile]
The pIC50 of the first is 0.29 log units higher: 7.48 for the first, 7.19 for the second. The first is the more potent here.

`COc1cc(C(=O)N2C[C@H]3CC[C@@H]2[C@@H]3N)cc2nc(-c3cc4cccnc4n3CC3CC3)n(CC3CN(C(=O)C4CCCCC4)C3)c12` [Example 110, (1R,4R,7R)-2-{1-[(1-cyclohexanecarbonylazetidin-3-yl)methyl]-2-[1-(cyclopropylmethyl)-1H-pyrrolo[2,3-b]pyridin-2-yl]-7-methoxy-1H-1,3-benzodiazole-5-carbonyl}-2-azabicyclo[2.2.1]heptan-7-amine] and `COc1cc(C(=O)N2C[C@H]3CC[C@@H]2[C@@H]3N)cc2nc(-c3cc4cccnc4n3CC3CC3)n(CC3CN(C(=O)CC4CC4)C3)c12` [Example 115, 1-[3-({5-[(1R,4R,7R)-7-amino-2-azabicyclo[2.2.1]heptane-2-carbonyl]-2-[1-(cyclopropylmethyl)-1H-pyrrolo[2,3-b]pyridin-2-yl]-7-methoxy-1H-1,3-benzodiazol-1-yl}methyl)azetidin-1-yl]-2-cyclopropylethan-1-one] are within 0.2 log units of each other in pIC50: 7.34 for the first, 7.23 for the second.

First: COc1cc(C(=O)N2C[C@H]3CC[C@@H]2[C@@H]3N)cc2nc(-c3cc4cccnc4n3CC3CC3)n(C3CN(C(=O)c4ccnc(O)c4)C3)c12 [Example 190, 4-(3-{5-[(1R,4R,7R)-7-amino-2-azabicyclo[2.2.1]heptane-2-carbonyl]-2-[1-(cyclopropylmethyl)-1H-pyrrolo[2,3-b]pyridin-2-yl]-7-methoxy-1H-1,3-benzodiazol-1-yl}azetidine-1-carbonyl)pyridin-2-ol]
Second: COc1cc(C(=O)N2CC3CCC2[C@@H]3N)cc2nc(-c3cc4cccnc4n3CC3CC3)n(CC3(F)CN(C(=O)c4ccccc4)C3)c12 (stereo partly drawn) [Example 438, (7R)-2-{1-[(1-benzoyl-3-fluoroazetidin-3-yl)methyl]-2-[1-(cyclopropymethyl)-1H-pyrrolo[2,3-b]pyridin-2-yl]-7-methoxy-1H-1,3-benzodiazole-5-carbonyl}-2-azabicyclo[2.2.1]heptan-7-amine]
The pIC50 of the first is 1.35 log units lower: 6.11 for the first, 7.46 for the second.

`COc1cc(C(=O)N2CC3CCC2[C@@H]3N)cc2nc(-c3cc4cccnc4n3CC3CC3)n(C[C@@H]3CCN(c4nccnc4C#N)C3)c12` (stereo partly drawn) [Example 212, 3-[(3R)-3-({5-[(1R,4R,7R)-7-amino-2-azabicyclo[2.2.1]heptane-2-carbonyl]-2-[1-(cyclopropylmethyl)-1H-pyrrolo[2,3-b]pyridin-2-yl]-7-methoxy-1H-1,3-benzodiazol-1-yl}methyl)pyrrolidin-1-yl]pyrazine-2-carbonitrite] and `COc1cc(C(=O)N2C[C@H]3CC[C@@H]2[C@@H]3N)cc2nc(-c3cc4cccnc4n3CC3CC3)n(CC3CN(c4ncccn4)C3)c12` [Example 30, (1R,4R,7R)-2-{2-[1-(cyclopropylmethyl)-1H-pyrrolo[2,3-b]pyridin-2-yl]-7-methoxy-1-{[1-(pyrimidin-2-yl)azetidin-3-yl]methyl}-1H-1,3-benzodiazole-5-carbonyl}-2-azabicyclo[2.2.1]heptan-7-amine] are within 0.2 log units of each other in pIC50: 7.09 for the first, 7.08 for the second.

`COc1cc(C(=O)N2CC3CCC2[C@@H]3N)cc2nc(-c3cc4cccnc4n3CC3CC3)n(CC3CN(S(=O)(=O)c4cccc(F)c4)C3)c12` (stereo partly shown) [Example 333] and `COc1cc(C(=O)N2C[C@H]3CC[C@@H]2[C@@H]3N)cc2nc(-c3cc4cccnc4n3CC3CC3)n(CC3CN(c4cncc(C)n4)C3)c12` [Example 63, (1R,4R,7R)-2-{2-[1-(cyclopropylmethyl)-1H-pyrrolo[2,3-b]pyridin-2-yl]-7-methoxy-1-{[1-(6-methylpyrazin-2-yl)azetidin-3-yl]methyl}-1H-1,3-benzodiazole-5-carbonyl}-2-azabicyclo[2.2.1]heptan-7-amine] are within 0.2 log units of each other in pIC50: 6.65 for the first, 6.70 for the second.

Compared with `COc1cc(C(=O)N2CC3CCC2[C@@H]3N)cc2nc(-c3cc4cccnc4n3CC3CC3)n([C@H]3C[C@H](NS(C)(=O)=O)C3)c12` (stereo partly drawn) [Example 298, N-[(1r,3r)-3-{5-[(1R,4R,7R)-7-amino-2-azabicyclo[2.2.1]heptane-2-carbonyl]-2-[1-(cyclopropylmethyl)-1H-pyrrolo[2,3-b]pyridin-2-yl]-7-methoxy-1H-1,3-benzodiazol-1-yl}cyclobutyl]methanesulfonamide], `COc1cc(C(=O)N2C[C@H]3CC[C@@H]2[C@@H]3N)cc2nc(-c3cc4cccnc4n3C)n(C[C@H]3CCN(c4ccnc(C5CC5)n4)C3)c12` [Example 209, (1R,4R,7R)-2-(1-{[(3S)-1-(2-cyclopropylpyrimidin-4-yl)pyrrolidin-3-yl]methyl}-7-methoxy-2-{1-methyl-1H-pyrrolo[2,3-b]pyridin-2-yl}-1H-1,3-benzodiazole-5-carbonyl)-2-azabicyclo[2.2.1]heptan-7-amine] is 0.73 log units higher in pIC50: 6.48 for the first, 7.21 for the second. The second is the more potent here.

Going from `COc1cc(C(=O)N2C[C@H]3CC[C@@H]2[C@@H]3N)cc2nc(-c3cc4ccccc4n3CC3CC3)n(Cc3cnn(C)c3)c12` [Example 242, (1R,4R,7R)-2-{2-[1-(cyclopropylmethyl)-1H-indol-2-yl]-7-methoxy-1-[(1-methyl-1H-pyrazol-4-yl)methyl]-1H-1,3-benzodiazole-5-carbonyl}-2-azabicyclo[2.2.1]heptan-7-amine] to `COc1cc(C(=O)N2CC3CCC2[C@@H]3N)cc2nc(-c3cc4ccccc4n3CC3CC3)n(Cc3cnnn3C)c12` (stereo partly drawn) [Example 514, (7R)-2-{2-[1-(cyclopropylmethyl)-1H-indol-2-yl]-7-methoxy-1-[(1-methyl-1H-1,2,3-triazol-5-yl)methyl]-1H-1,3-benzodiazole-5-carbonyl}-2-azabicyclo[2.2.1]heptan-7-amine], the pIC50 falls from 7.39 to 6.39 (1.00 log units).
